According to the supplement of paper PMC10307832:

Key:
Assay in all cases: relative viability (nuclei count vs DMSO), 5 days (fraction); higher = more cells survive
Fedratinib + Pemetrexed = compound: Cc1cnc(Nc2ccc(OCCN3CCCC3)cc2)nc1Nc1cccc(S(=O)(=O)NC(C)(C)C)c1 [Fedratinib] + Nc1nc2[nH]cc(CCc3ccc(C(=O)N[C@@H](CCC(=O)O)C(=O)O)cc3)c2c(=O)[nH]1 [Pemetrexed] (partner 0.2 µM)
Outline: (§1)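 Relative viability is defined as nuclei in treated wells over nuclei in vehicle wells. Duplicate plates were run and medians reported. Lung cancer cell lines in 1536-well plates were dosed by pin tool one day after seeding, with one drug or with a fixed anchor-drug dose plus five library-drug doses (not always all listed) in √10 steps, and nuclei were counted after 5 days.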

Fedratinib + Decitabine = compound: Cc1cnc(Nc2ccc(OCCN3CCCC3)cc2)nc1Nc1cccc(S(=O)(=O)NC(C)(C)C)c1 [Fedratinib] + Nc1ncn([C@H]2C[C@H](O)[C@@H](CO)O2)c(=O)n1 [Decitabine] (partner 2 µM)
Outline: as §1

Fedratinib + Tozasertib = compound: Cc1cnc(Nc2ccc(OCCN3CCCC3)cc2)nc1Nc1cccc(S(=O)(=O)NC(C)(C)C)c1 [Fedratinib] + Cc1cc(Nc2cc(N3CCN(C)CC3)nc(Sc3ccc(NC(=O)C4CC4)cc3)n2)n[nH]1 [Tozasertib] (partner 0.1 µM)
Outline: as §1

GW-2580 + Lapatinib = compound: COC1=CC=C(C=C1)COC2=C(C=C(C=C2)CC3=CN=C(N=C3N)N)OC [GW-2580] + CS(=O)(=O)CCNCc1ccc(-c2ccc3ncnc(Nc4ccc(OCc5cccc(F)c5)c(Cl)c4)c3c2)o1 [Lapatinib] (partner 2 µM)
Outline: as §1

Fedratinib + OSI-027 = compound: Cc1cnc(Nc2ccc(OCCN3CCCC3)cc2)nc1Nc1cccc(S(=O)(=O)NC(C)(C)C)c1 [Fedratinib] + COc1cccc2cc(-c3nc([C@H]4CC[C@H](C(=O)O)CC4)n4ncnc(N)c34)[nH]c12 [OSI-027] (partner 0.5 µM)
Outline: as §1

GW-2580 + Olaparib = compound: COC1=CC=C(C=C1)COC2=C(C=C(C=C2)CC3=CN=C(N=C3N)N)OC [GW-2580] + O=C(c1cc(Cc2n[nH]c(=O)c3ccccc23)ccc1F)N1CCN(C(=O)C2CC2)CC1 [Olaparib] (partner 8 µM)
Outline: as §1

Row | Cell Line | relative viability (Fedratinib + Pemetrexed; first compound 0.1 µM) | relative viability (Fedratinib + Pemetrexed; first compound 0.3162 µM) | relative viability (Fedratinib + Pemetrexed; first compound 1 µM) | relative viability (Fedratinib + Decitabine; first compound 0.1 µM) | relative viability (Fedratinib + Decitabine; first compound 0.3162 µM) | relative viability (Fedratinib + Decitabine; first compound 1 µM) | relative viability (Fedratinib + Tozasertib; first compound 0.1 µM) | relative viability (Fedratinib + Tozasertib; first compound 0.3162 µM) | relative viability (Fedratinib + Tozasertib; first compound 1 µM) | relative viability (GW-2580 + Lapatinib; first compound 0.08 µM) | relative viability (GW-2580 + Lapatinib; first compound 0.8 µM) | relative viability (GW-2580 + Lapatinib; first compound 2.53 µM) | relative viability (GW-2580 + Lapatinib; first compound 8 µM) | relative viability (Fedratinib + OSI-027; first compound 0.1 µM) | relative viability (Fedratinib + OSI-027; first compound 0.3162 µM) | relative viability (Fedratinib + OSI-027; first compound 1 µM) | relative viability (GW-2580 + Olaparib; first compound 0.08 µM) | relative viability (GW-2580 + Olaparib; first compound 0.8 µM) | relative viability (GW-2580 + Olaparib; first compound 2.53 µM) | relative viability (GW-2580 + Olaparib; first compound 8 µM)
1 | NCI-H3122 | 0.186 | 0.189 | 0.197 | 0.392 | 0.417 | 0.403 | 0.259 | 0.362 | 0.299 | 1.01 | 1.02 | 0.999 | 1.04 | 0.911 | 0.918 | 0.854 | 0.682 | 0.739 | 0.675 | 0.648
2 | PC-3 [JPC-3] | 1.04 | 1.23 | 1.03 | 0.717 | 0.827 | 0.75 | 0.833 | 0.894 | 0.864 | 0.458 | 0.462 | 0.358 | 0.446 | 0.776 | 0.801 | 0.764 | 1.12 | 1.26 | 1.03 | 1.15
3 | PC-14 | 0.124 | 0.132 | 0.131 | 0.193 | 0.23 | 0.094 | 0.436 | 0.59 | 0.583 | 0.379 | 0.35 | 0.307 | 0.268 | 0.746 | 0.88 | 0.633 | 0.243 | 0.247 | 0.242 | 0.295
4 | RERF-LC-KJ | 0.454 | 0.463 | 0.502 | 0.64 | 0.635 | 0.277 | 0.292 | 0.38 | 0.347 | 0.895 | 0.909 | 0.736 | 0.884 | 0.533 | 0.602 | 0.48 | 1 | 1.04 | 0.888 | 0.861
5 | SK-LU-1 | 1 | 0.906 | 0.837 | 0.614 | 0.599 | 0.615 | 0.27 | 0.298 | 0.261 | 0.962 | 1.14 | 0.829 | 0.979 | 0.307 | 0.35 | 0.289 | 0.431 | 0.497 | 0.389 | 0.503
6 | SK-MES-1 | 1.01 | 0.947 | 0.811 | 0.394 | 0.409 | 0.241 | 0.375 | 0.857 | 0.737 | 0.47 | 0.496 | 0.392 | 0.474 | 0.544 | 0.6 | 0.436 | 0.79 | 0.795 | 0.603 | 0.777
7 | SW 1573 | 0.753 | 0.857 | 0.673 | 0.524 | 0.577 | 0.105 | 0.148 | 0.21 | 0.14 | 0.979 | 1.11 | 1.18 | 0.856 | 0.564 | 0.635 | 0.394 | 0.477 | 0.474 | 0.492 | 0.543
